{
  "source": "patent US20230119479A1",
  "about": "“A HISTONE DEACETYLASE INHIBITOR HAVING A NITROGEN-CONTAINING AROMATIC HETEROCYCLYL GROUP” (SHIONOGI & CO., LTD., priority 2019, published 2023)",
  "data": [
    {"target": "T1, HDAC2 Human recombinant C-terminal FLAG-tag (Homo sapiens, UniProt Q92769)", "T1 construct": "FLAG (C); purchased BPS Bioscience 50052", "T1 sequence (Q92769 whole entry)": "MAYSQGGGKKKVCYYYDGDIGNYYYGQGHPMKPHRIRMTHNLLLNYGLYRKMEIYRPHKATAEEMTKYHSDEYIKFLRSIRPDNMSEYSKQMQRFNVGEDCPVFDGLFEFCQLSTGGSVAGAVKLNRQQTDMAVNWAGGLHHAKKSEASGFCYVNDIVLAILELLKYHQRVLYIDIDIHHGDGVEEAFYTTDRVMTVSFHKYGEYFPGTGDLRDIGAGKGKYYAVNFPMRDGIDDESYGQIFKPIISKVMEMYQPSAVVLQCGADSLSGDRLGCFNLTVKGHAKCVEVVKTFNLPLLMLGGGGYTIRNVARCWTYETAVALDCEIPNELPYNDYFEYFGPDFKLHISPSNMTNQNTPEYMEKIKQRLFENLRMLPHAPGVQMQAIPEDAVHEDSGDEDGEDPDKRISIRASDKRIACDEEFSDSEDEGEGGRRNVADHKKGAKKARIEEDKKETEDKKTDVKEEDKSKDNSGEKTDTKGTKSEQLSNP", "test": "Measurement of HDAC2 enzyme inhibitory activity (HTRF)", "assay_type": "biochemical", "conditions": "recombinant HDAC2, H3K9ac peptide, 3 hours room temperature; read-out: HDAC2 IC50", "method": "(§1) Test Example 1: Measurement of HDAC2 Enzyme Inhibitory Activity\n(§2) The HDAC2 enzyme inhibitory activity was measured by the method described in the following test example.\n(§3) To each well of a 384-well plate (Corning, 4514), DMSO solution of the test compound was dispensed at 50 nL/well from a final concentration of 99 μM to 8 points (n=2) in the 3-fold dilution series using Echo555 (Beckman Coulter). 2.5 μl of 0.005 mg/mL recombinant enzyme HDAC2 (HDAC2 Human recombinant C-terminal FLAG-tag, BPS Bioscience, 50052) was added to each well, 2.5 μl of 0.6 μM H3K9ac peptide (Lys(Ac)9-Histone H3 (1-21)-GGK(Biotin), AnaSpec, 64361) was added, mixed, and reacted in a wet box at room temperature for 3 hours. 50 mM Tris HCL pH8.0, 137 mM sodium chloride, 2.7 mM potassium chloride, 1 mM magnesium chloride, 0.01% Tween20, and 0.1% BSA which were diluted with ultrapure water were used as a reaction buffer at this time. After the reaction, 5 μL of 10 μM SAHA (suberoylanilide hydroxamic acid) as a reaction terminator and the 5 μL of a mixture of 2.5 ng of H3K9me0 antibody (ActiveMotif, 61399) labeled in-house with europium cryptate (Cisbio, 65EUSABA) and 125 nM streptavidin-XL665 (Cisbio, 610SAXLA) as an HTRF (time-resolved fluorescence) reagent were added to each well, mixed, and allowed to stand in a wet box at room temperature for reaction. A detection buffer used at this time was 50 mM Tris HCL pH 8.0, 0.8 M potassium fluoride, and 0.1% BSA which were diluted with ultrapure water. After reacting for 2 hours or more, HTRF was measured using a multi-plate reader such as SpectraMax Paradigm (MOLECULAR DEVICE) or RUBYstar (BMG LABTECH). Ratio (665 nm/615-620 nm×10000) was calculated from the fluorescence values of two wavelengths, 615-620 nm and 665 nm, which were excited at 320-340 nm, and the energy transition was obtained.", "units": {"IC50": "nM"}, "values": [
      {"smiles": "CC(C)Nc1ccc(C(=O)Nc2cc(-c3ccc(F)nc3)ccc2N)nn1", "note": "[Compound I-273]", "IC50": 230},
      {"smiles": "Nc1ccc(-c2ccc(F)nc2)cc1NC(=O)c1cnc(N2CC3(CCO3)C2)cn1", "note": "[Compound I-235]", "IC50": 60},
      {"smiles": "Cn1cc(-c2ccc(C(=O)Nc3nc(-c4cccs4)ccc3N)nc2)nn1", "note": "[Compound I-034]", "IC50": 280},
      {"smiles": "N#Cc1ccnc(C(=O)Nc2cc(-c3cncs3)ccc2N)c1", "note": "[Compound I-109]", "IC50": 190},
      {"smiles": "Nc1ccc(-c2cncs2)cc1NC(=O)c1cc2c(cn1)OCCO2", "note": "[Compound I-073]", "IC50": 120},
      {"smiles": "Nc1ccc(-c2ccc(F)nc2)cc1NC(=O)c1cnccn1", "note": "[Compound I-114]", "IC50": 260},
      {"smiles": "CCc1ccc(C(=O)Nc2cc(-c3ccc(F)nc3)ccc2N)nc1", "note": "[Compound I-174]", "IC50": 120},
      {"smiles": "Nc1ccc(-c2ccc(F)nc2)cc1NC(=O)c1ccccn1", "note": "[Compound I-113]", "IC50": 320},
      {"smiles": "Nc1ccc(-c2ccc(F)nc2)cc1NC(=O)c1cnc(CF)cn1", "note": "[Compound I-134]", "IC50": 210},
      {"smiles": "Nc1ccc(-c2cncs2)cc1NC(=O)c1ccc(Cl)cn1", "note": "[Compound I-071]", "IC50": 160},
      {"smiles": "Nc1ccc(-c2ccccc2)nc1NC(=O)c1ccc2c(n1)OCC(=O)N2", "note": "[Compound I-233]", "IC50": 280},
      {"smiles": "C#Cc1ccc(C(=O)Nc2cc(-c3ccc(F)nc3)ccc2N)nc1", "note": "[Compound I-096]", "IC50": 270},
      {"smiles": "Cn1cc(-c2cnc(C(=O)Nc3cc(-n4cccc4)ccc3N)cn2)cn1", "note": "[Compound I-013]", "IC50": 100},
      {"smiles": "Cn1cc(-c2cnc(C(=O)Nc3cc(-c4cccs4)ccc3N)nc2)cn1", "note": "[Compound I-014]", "IC50": 200},
      {"smiles": "CN(Cc1ccccn1)c1cnc(C(=O)Nc2cc(-c3ccc(F)nc3)ccc2N)cn1", "note": "[Compound I-276]", "IC50": 40},
      {"smiles": "Nc1ccc(-c2ccc(F)nc2)cc1NC(=O)c1cnc(OCC(F)F)cn1", "note": "[Compound I-151]", "IC50": 220},
      {"smiles": "Nc1ccc(-c2cncs2)cc1NC(=O)c1ccc2nccn2n1", "note": "[Compound I-065]", "IC50": 330},
      {"smiles": "Nc1ccc(-c2ccc(F)nc2)cc1NC(=O)c1ccc(CN2CCCC2=O)cn1", "note": "[Compound I-104]", "IC50": 85},
      {"smiles": "Nc1ccc(-c2ccc(F)nc2)cc1NC(=O)c1cnc(N2CC(O)C2)cn1", "note": "[Compound I-282]", "IC50": 50},
      {"smiles": "COCCOc1ccc(C(=O)Nc2cc(-c3cnn(C)c3)ccc2N)nc1", "note": "[Compound I-180]", "IC50": 210},
      {"smiles": "Cn1cc(-c2cnc(C(=O)Nc3nc(-c4cccs4)ccc3N)c(F)c2)cn1", "note": "[Compound I-022]", "IC50": 470},
      {"smiles": "Cc1cnc(C(=O)Nc2cc(-c3ccc(F)nc3)ccc2N)cn1", "note": "[Compound I-123]", "IC50": 140},
      {"smiles": "Nc1ccc(-c2ccc(F)nc2)cc1NC(=O)c1ccc(CN2CCCCC2=O)cn1", "note": "[Compound I-108]", "IC50": 84},
      {"smiles": "Cn1cc(-c2ccc(C(=O)Nc3cc(-c4cncs4)ccc3N)nc2)nn1", "note": "[Compound I-047]", "IC50": 30},
      {"smiles": "Nc1ccc(-c2cncs2)cc1NC(=O)c1cc2c(cn1)OCCC2", "note": "[Compound I-067]", "IC50": 120},
      {"smiles": "CC(C)(C)c1cnc(C(=O)Nc2cc(-c3ccc(F)nc3)ccc2N)cn1", "note": "[Compound I-203]", "IC50": 240},
      {"smiles": "Nc1ccc(-c2ccccc2)nc1NC(=O)c1ccc2c(n1)OCO2", "note": "[Compound I-217]", "IC50": 340},
      {"smiles": "CC(C)Nc1cnc(C(=O)Nc2cc(-n3ccc(F)c3)ccc2N)cn1", "note": "[Compound I-301]", "IC50": 310},
      {"smiles": "Nc1ccc(-c2cncs2)cc1NC(=O)c1noc2ccccc12", "note": "[Compound I-195]", "IC50": 290},
      {"smiles": "Nc1ccc(-c2ccc(F)nc2)cc1NC(=O)c1cnc(N2CCCOCC2)cn1", "note": "[Compound I-278]", "IC50": 50},
      {"smiles": "Cn1cc(-c2cnc(C(=O)Nc3cc(-c4cccs4)ccc3N)cn2)cn1", "note": "[Compound I-007]", "IC50": 96},
      {"smiles": "COc1ccc(C(=O)Nc2cc(-c3cnn(C)c3)ccc2N)nc1", "note": "[Compound I-140]", "IC50": 220},
      {"smiles": "CN(C)c1cnc(C(=O)Nc2cc(-n3ccc(F)c3)ccc2N)cn1", "note": "[Compound I-299]", "IC50": 120},
      {"smiles": "CCc1cnc(C(=O)Nc2cc(-c3ccc(F)nc3)ccc2N)cn1", "note": "[Compound I-249]", "IC50": 70},
      {"smiles": "Nc1ccc(-c2ccc(F)nc2)cc1NC(=O)c1ccc(OC(F)F)cn1", "note": "[Compound I-143]", "IC50": 390},
      {"smiles": "Nc1ccc(-c2ccc(F)nc2)cc1NC(=O)c1cnc(N2CCOCC2)cn1", "note": "[Compound I-303]", "IC50": 70},
      {"smiles": "Cn1cc(-c2ccc(N)c(NC(=O)c3cnc(OC4CCOCC4)cn3)c2)cn1", "note": "[Compound I-291]", "IC50": 310},
      {"smiles": "CC(C)c1ccc(C(=O)Nc2cc(-c3cnn(C)c3)ccc2N)nc1", "note": "[Compound I-153]", "IC50": 210},
      {"smiles": "CC(C)(O)C1CN(c2cnc(C(=O)Nc3cc(-c4ccc(F)nc4)ccc3N)cn2)C1", "note": "[Compound I-284]", "IC50": 80},
      {"smiles": "CCc1cnc(C(=O)Nc2nc(-n3cccc3)ccc2N)cn1", "note": "[Compound I-261]", "IC50": 260},
      {"smiles": "Cn1cc(-c2ccc(C(=O)Nc3nc(-c4cncs4)ccc3N)nc2)cn1", "note": "[Compound I-061]", "IC50": 210},
      {"smiles": "CC#Cc1ccc(C(=O)Nc2cc(-c3cncs3)ccc2N)nc1", "note": "[Compound I-094]", "IC50": 230},
      {"smiles": "COCc1ccc(C(=O)Nc2cc(-c3ccc(F)nc3)ccc2N)nc1", "note": "[Compound I-208]", "IC50": 150},
      {"smiles": "CC(C)(O)c1ccc(C(=O)Nc2cc(-c3ccc(F)nc3)ccc2N)nc1", "note": "[Compound I-193]", "IC50": 170},
      {"smiles": "CC(C)c1ccc(C(=O)Nc2cc(-c3ccc(F)nc3)ccc2N)nc1", "note": "[Compound I-181]", "IC50": 140},
      {"smiles": "Cc1ccc(C(=O)Nc2cc(-c3ccc(F)nc3)ccc2N)nc1", "note": "[Compound I-154]", "IC50": 120},
      {"smiles": "Cn1cc(-c2ccc(C(=O)Nc3cc(-c4cnn(C)c4)ccc3N)nc2)cn1", "note": "[Compound I-037]", "IC50": 180},
      {"smiles": "Nc1ccc(-c2ccc(F)nc2)cc1NC(=O)c1cnc(N2CC(Cl)(CCO)C2)cn1", "note": "[Compound I-224]", "IC50": 100},
      {"smiles": "CN(C)c1cnc(C(=O)Nc2nc(-c3cnn(C)c3)ccc2N)cn1", "note": "[Compound I-228]", "IC50": 630},
      {"smiles": "CN(C)c1ccc(C(=O)Nc2nc(-n3cccc3)ccc2N)nc1", "note": "[Compound I-226]", "IC50": 450},
      {"smiles": "CC(=O)N(C)c1cnc(C(=O)Nc2cc(-c3ccc(F)nc3)ccc2N)cn1", "note": "[Compound I-248]", "IC50": 220},
      {"smiles": "Nc1ccc(-c2cncs2)cc1NC(=O)c1cc(Cl)c(Cl)cn1", "note": "[Compound I-072]", "IC50": 480},
      {"smiles": "Cn1cc(-c2ccc(N)c(NC(=O)c3ccc(N4CCOCC4)nn3)c2)cn1", "note": "[Compound I-275]", "IC50": 260},
      {"smiles": "Cn1cc(-c2ccc(C(=O)Nc3cc(-n4cccn4)ccc3N)nc2)cn1", "note": "[Compound I-063]", "IC50": 270},
      {"smiles": "Cc1ccc(C(=O)Nc2cc(-c3ccc(F)nc3)ccc2N)nc1F", "note": "[Compound I-210]", "IC50": 190},
      {"smiles": "CN(Cc1ccccn1)c1cnc(C(=O)Nc2cc(-c3cnn(C)c3)ccc2N)cn1", "note": "[Compound I-295]", "IC50": 80},
      {"smiles": "CC(=O)N(C)c1cnc(C(=O)Nc2cc(-c3cnn(C)c3)ccc2N)cn1", "note": "[Compound I-244]", "IC50": 470},
      {"smiles": "Cn1cc(-c2ccc(N)c(NC(=O)c3cc(-c4cnn(C)c4)on3)c2)cn1", "note": "[Compound I-197]", "IC50": 240},
      {"smiles": "N#Cc1ccc(C(=O)Nc2cc(-c3cncs3)ccc2N)nc1", "note": "[Compound I-069]", "IC50": 160},
      {"smiles": "Nc1ccc(-c2ccc(F)nc2)cc1NC(=O)c1ccc(C2COC2)cn1", "note": "[Compound I-246]", "IC50": 110},
      {"smiles": "Nc1ccc(-c2cncs2)cc1NC(=O)c1ccc(C(F)(F)F)cn1", "note": "[Compound I-020]", "IC50": 260}
    ]},
    {"target": "T1, HDAC2 Human recombinant C-terminal FLAG-tag", "test": "Measurement of HDAC2 enzyme inhibitory activity (HTRF)", "assay_type": "biochemical", "conditions": "recombinant HDAC2, H3K9ac peptide; read-out: IC50 (HDAC2)", "method": "as §1, §2, §3", "units": {"IC50": "nM"}, "values": [
      {"smiles": "CC(=O)Nc1cnc(C(=O)Nc2cc(-c3cnn(C)c3)ccc2N)cn1", "note": "[Compound I-309]", "IC50": 120},
      {"smiles": "CCNc1cnc(C(=O)Nc2cc(-c3cnn(C)c3)ccc2N)cn1", "note": "[Compound I-304]", "IC50": 70}
    ]}
  ]
}
